Reference: ChEMBL document CHEMBL4229455, “Synthesis and anticancer activity of novel bisindolylhydroxymaleimide derivatives with potent GSK-3 kinase inhibition” (Bioorg Med Chem, 2018)
pIC50: −log10 of the molar value.

Tests used:
HOP-62 = assay: Cytotoxicity against human HOP62 cells assessed as cell growth at 1 uM after 48 hrs by SRB assay relative to control; type: functional; conditions: HOP-62, 48 h, read-out: Activity
ACHN = assay: Cytotoxicity against human ACHN cells assessed as cell growth at 10 uM after 48 hrs by SRB assay relative to control; type: functional; conditions: read-out: Activity
[1] = target: T1, Serine/threonine-protein kinase haspin (Homo sapiens) (UniProt Q8TF76); assay: Inhibition of recombinant human haspin kinase domain expressed in bacteria assessed as residual activity at 10 uM using histone H3 (1 to 21 residues) peptide as substrate in presence of [gamma-33P]ATP
T1 sequence (whole entry): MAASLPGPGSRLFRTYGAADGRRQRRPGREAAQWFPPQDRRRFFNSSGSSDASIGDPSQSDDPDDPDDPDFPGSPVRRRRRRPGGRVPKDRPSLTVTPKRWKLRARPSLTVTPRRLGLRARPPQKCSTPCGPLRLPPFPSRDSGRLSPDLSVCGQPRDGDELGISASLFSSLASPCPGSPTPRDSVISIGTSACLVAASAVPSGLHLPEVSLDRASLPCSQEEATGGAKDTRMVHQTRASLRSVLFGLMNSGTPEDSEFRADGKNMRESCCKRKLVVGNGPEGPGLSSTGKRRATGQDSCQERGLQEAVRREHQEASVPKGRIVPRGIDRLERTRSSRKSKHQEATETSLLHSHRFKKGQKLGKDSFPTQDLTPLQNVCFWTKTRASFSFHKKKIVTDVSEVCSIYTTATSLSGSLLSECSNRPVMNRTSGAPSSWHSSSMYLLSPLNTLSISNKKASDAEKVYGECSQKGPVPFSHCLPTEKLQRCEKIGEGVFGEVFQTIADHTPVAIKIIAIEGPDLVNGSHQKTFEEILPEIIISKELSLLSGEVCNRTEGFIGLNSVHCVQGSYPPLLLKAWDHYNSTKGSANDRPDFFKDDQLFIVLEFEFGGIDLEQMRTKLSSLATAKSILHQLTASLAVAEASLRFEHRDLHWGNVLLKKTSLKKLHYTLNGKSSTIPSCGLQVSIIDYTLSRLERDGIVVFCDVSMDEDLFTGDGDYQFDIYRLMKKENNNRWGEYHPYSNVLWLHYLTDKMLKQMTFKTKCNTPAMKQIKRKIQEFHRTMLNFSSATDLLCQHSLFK

UACC-257 = assay: Cytotoxicity against human UACC257 cells assessed as cell growth at 10 uM after 48 hrs by SRB assay relative to control; type: functional; conditions: UACC-257, 48 h, read-out: Activity
HCC 2998 = assay: Cytotoxicity against human HCC2998 cells assessed as cell growth at 1 uM after 48 hrs by SRB assay relative to control; type: functional; conditions: HCC 2998, 48 h, read-out: Activity
Aurora kinase B = Aurora kinase B (Homo sapiens, UniProt Q96GD4); assay: Inhibition of recombinant full length human aurora B expressed in baculovirus infected Sf9 insect cells using MBP as substrate in presence of [gamma-33P]ATP
Aurora kinase B, sequence (Q96GD4 whole entry): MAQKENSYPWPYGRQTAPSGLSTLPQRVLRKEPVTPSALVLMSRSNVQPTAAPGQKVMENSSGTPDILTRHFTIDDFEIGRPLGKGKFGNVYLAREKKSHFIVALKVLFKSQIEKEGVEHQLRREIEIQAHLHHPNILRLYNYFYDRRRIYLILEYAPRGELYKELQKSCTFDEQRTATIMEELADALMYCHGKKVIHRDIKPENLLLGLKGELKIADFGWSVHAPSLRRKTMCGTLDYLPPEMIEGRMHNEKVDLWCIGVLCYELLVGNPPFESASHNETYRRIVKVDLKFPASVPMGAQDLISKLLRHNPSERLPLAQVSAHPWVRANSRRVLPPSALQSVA

K562 = assay: Cytotoxicity against human K562 cells assessed as cell growth at 10 uM after 48 hrs by SRB assay relative to control; type: functional; conditions: K562, 48 h, read-out: Activity
786-0 = assay: Cytotoxicity against human 786-O cells assessed as cell growth at 10 uM after 48 hrs by SRB assay relative to control; type: functional; conditions: 786-0, 48 h, read-out: Activity
SNB-19 = assay: Cytotoxicity against human SNB19 cells assessed as cell growth at 10 uM after 48 hrs by SRB assay relative to control; type: functional; conditions: SNB-19, 48 h, read-out: Activity
OVCAR-3 = assay: Cytotoxicity against human OVCAR3 cells assessed as cell growth at 10 uM after 48 hrs by SRB assay relative to control; type: functional; conditions: OVCAR-3, 48 h, read-out: Activity
OVCAR-4 = assay: Cytotoxicity against human OVCAR4 cells assessed as cell growth at 10 uM after 48 hrs by SRB assay relative to control; type: functional; conditions: OVCAR-4, 48 h, read-out: Activity
DU-145 = assay: Cytotoxicity against human DU145 cells assessed as cell growth at 10 uM after 48 hrs by SRB assay relative to control; type: functional; conditions: DU-145, 48 h, read-out: Activity
SK-MEL-2 [2] = assay: Cytotoxicity against human SK-MEL-2 cells assessed as cell growth at 0.01 uM after 48 hrs by SRB assay relative to control; type: functional; conditions: SK-MEL-2, 48 h, read-out: Activity
NCI-H522 = assay: Cytotoxicity against human NCI-H522 cells assessed as cell growth at 10 uM after 48 hrs by SRB assay relative to control; type: functional; conditions: NCI-H522, 48 h, read-out: Activity
SF-295 = assay: Cytotoxicity against human SF295 cells assessed as cell growth at 10 uM after 48 hrs by SRB assay relative to control; type: functional; conditions: SF-295, 48 h, read-out: Activity
[3] = target: Serine/threonine-protein kinase pim-1 (Homo sapiens, UniProt P11309); assay: Inhibition of recombinant full length human PIM1 expressed in bacteria using histone H1 as substrate in presence of [gamma-33P]ATP
Serine/threonine-protein kinase pim-1, sequence (P11309 whole entry): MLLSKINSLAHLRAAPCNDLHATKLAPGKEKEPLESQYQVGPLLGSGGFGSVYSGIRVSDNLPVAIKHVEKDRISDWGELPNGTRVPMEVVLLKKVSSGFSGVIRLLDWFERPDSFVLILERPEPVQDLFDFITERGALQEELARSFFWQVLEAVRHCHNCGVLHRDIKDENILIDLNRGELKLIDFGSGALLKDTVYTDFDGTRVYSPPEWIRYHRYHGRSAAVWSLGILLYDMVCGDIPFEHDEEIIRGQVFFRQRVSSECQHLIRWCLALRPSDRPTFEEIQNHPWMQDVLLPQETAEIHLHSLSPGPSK

MDA-MB-231 = assay: Cytotoxicity against human MDA-MB-231 cells assessed as cell growth at 10 uM after 48 hrs by SRB assay relative to control; type: functional; conditions: MDA-MB-231, 48 h, read-out: Activity
SK-MEL-2 [4] = assay: Cytotoxicity against human SK-MEL-2 cells assessed as cell growth at 10 uM after 48 hrs by SRB assay relative to control; type: functional; conditions: SK-MEL-2, 48 h, read-out: Activity
MOLT-4 = assay: Cytotoxicity against human MOLT4 cells assessed as cell growth at 10 uM after 48 hrs by SRB assay relative to control; type: functional; conditions: MOLT-4, 48 h, read-out: Activity
CAKI-1 = assay: Cytotoxicity against human Caki1 cells assessed as cell growth at 10 uM after 48 hrs by SRB assay relative to control; type: functional; conditions: CAKI-1, 48 h, read-out: Activity
[5] = target: Cyclin-dependent kinase 5/CDK5 activator 1 (Homo sapiens, UniProt Q00535); assay: Inhibition of recombinant full length human CDK5/p25 expressed in bacteria using histone H1 as substrate in presence of [gamma-33P]ATP
Cyclin-dependent kinase 5/CDK5 activator 1, sequence (Q00535 whole entry): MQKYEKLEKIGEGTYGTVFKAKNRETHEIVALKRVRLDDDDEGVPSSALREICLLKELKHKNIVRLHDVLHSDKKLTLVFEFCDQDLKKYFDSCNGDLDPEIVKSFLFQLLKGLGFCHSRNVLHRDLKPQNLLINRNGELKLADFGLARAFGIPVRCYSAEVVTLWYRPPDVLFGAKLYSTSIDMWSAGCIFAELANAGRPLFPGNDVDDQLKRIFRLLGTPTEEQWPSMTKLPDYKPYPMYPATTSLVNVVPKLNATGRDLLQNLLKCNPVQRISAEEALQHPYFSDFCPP
Cyclin-dependent kinase 5/CDK5 activator 1, sequence (Q15078 whole entry, further chain): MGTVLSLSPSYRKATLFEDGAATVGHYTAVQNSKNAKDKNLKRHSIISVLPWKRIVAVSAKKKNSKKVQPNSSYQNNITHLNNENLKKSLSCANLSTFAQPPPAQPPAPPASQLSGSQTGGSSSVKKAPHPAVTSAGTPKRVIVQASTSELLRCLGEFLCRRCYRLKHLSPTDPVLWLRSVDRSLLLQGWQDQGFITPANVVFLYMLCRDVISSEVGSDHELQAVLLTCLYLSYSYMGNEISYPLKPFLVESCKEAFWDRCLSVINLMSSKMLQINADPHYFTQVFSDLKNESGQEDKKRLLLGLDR

HOP-92 = assay: Cytotoxicity against human HOP92 cells assessed as cell growth at 10 uM after 48 hrs by SRB assay relative to control; type: functional; conditions: HOP-92, 48 h, read-out: Activity
IGROV-1 = assay: Cytotoxicity against human IGROV1 cells assessed as cell growth at 10 uM after 48 hrs by SRB assay relative to control; type: functional; conditions: IGROV-1, 48 h, read-out: Activity
T47D = assay: Cytotoxicity against human T47D cells assessed as cell growth at 10 uM after 48 hrs by SRB assay relative to control; type: functional; conditions: read-out: Activity
EKVX = assay: Cytotoxicity against human EKVX cells assessed as cell growth at 10 uM after 48 hrs by SRB assay relative to control; type: functional; conditions: read-out: Activity

| SMILES | growth at 1 µM (HOP-62) [%] | growth at 10 µM (ACHN) [%] | Activity [1] [%] | growth at 10 µM (UACC-257) [%] | growth at 1 µM (HCC 2998) [%] | pIC50 (Aurora kinase B) | growth at 10 µM (K562) [%] | growth at 10 µM (786-0) [%] | growth at 10 µM (SNB-19) [%] | growth at 10 µM (OVCAR-3) [%] | growth at 10 µM (OVCAR-4) [%] | growth at 10 µM (DU-145) [%] | growth at 0.01 µM (SK-MEL-2 [2]) [%] | growth at 10 µM (NCI-H522) [%] | growth at 10 µM (SF-295) [%] | pIC50 [3] | growth at 10 µM (MDA-MB-231) [%] | growth at 10 µM (MOLT-4) [%] | growth at 10 µM (CAKI-1) [%] | pIC50 [5] | also measured |
| --- | --- | --- | --- | --- | --- | --- | --- | --- | --- | --- | --- | --- | --- | --- | --- | --- | --- | --- | --- | --- | --- |
| N#CCCCCCn1cc(C2=C(c3cn(CCCCCC#N)c4ccccc34)C(=O)N(O)C2=O)c2ccccc21 | 83 | 45 to 81.7 | 99 | 56 to 82.1 | 108 | < 5.00 | 15 to 33.9 | 51 to 78.7 | 27 to 79.5 | 13 to 50.6 | 91.6 | 80 to 101 | 100 | 1 to 54.9 | 35 to 85 | < 5.00 | 31 to 40.3 | 10 to 49.4 | 65 to 67 | < 5.00 | growth at 10 µM (SK-MEL-2 [4]): 8 to 68.7%; growth at 10 µM (HOP-92): 25%; growth at 10 µM (IGROV-1): 28 to 66.8%; growth at 10 µM (T47D): 26 to 65.5% |
| Cn1cc(C2=C(c3cn(C)c4ncccc34)C(=O)NC2=O)c2ccccc21 | 87 | 8 to 26.5 | 101 | 35 to 84.8 | 85 | < 5.00 | 16 to 19.9 | 12 | 40 to 65 | 25 to 50.2 | 34 to 59 | 36 to 63.2 | 109 | 14.3 to 32 | 9.52 | 5.70 | 35 to 56.3 | 8 to 12.6 | 35 | 6.10 | growth at 10 µM (EKVX): 9 to 62.7%; growth at 10 µM (HOP-92): 12%; growth at 10 µM (IGROV-1): 8 to 70.8%; growth at 10 µM (T47D): 10 to 24.2% |
